The molecules below were run on Mycobacterium tuberculosis H37Rv growth inhibition, no glycerol (assay: Mycobacterium tuberculosis H37Rv growth inhibition, no glycerol, confirmatory dose response (AID 449764;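 note: growth read after 7 days of incubation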)). Details: not given.

Compared with COc1ccccc1OCCN1CSC(=S)N(C)C1, COc1ccccc1Nc1nc(N)nc(CCl)n1 is 3.7-fold lower in IC50: 17.8 µM for the first, 4.83 µM for the second. The second is the more potent here.

Compared with Cc1ccc(OC/C(O)=C(\C#N)c2nc3ccccc3s2)cc1, Cc1nc2ccc(OC(=O)c3ccccc3)cc2s1 is 3.4-fold higher in IC50: 25.7 µM for the first, 88.1 µM for the second.

COc1ccc(OC)c(CN2CCN(C(=O)CNC(=O)c3ccc(C(C)(C)C)cc3)CC2)c1 and COc1ccc(-c2cn(Cc3ccc(C(=O)NCc4ccc(C)cc4)cc3)c(C(C)N)n2)cc1 (stereo not given) are within 1.5-fold of each other in IC50: 63.8 µM for the first, 66 µM for the second.

Going from Cc1cc2cc(CNC(=O)NC3CCCCC3)ccc2[nH]1 to Cc1ccc2nc(/N=C(\N)NC(=O)NC3CCCCC3)nc(C)c2c1, the IC50 falls from 36 µM to 6.71 µM (5.4-fold).

O=C(Nc1ccc(Cl)cc1)N(C1=NCCC1)c1ccc(OC(F)F)cc1 and Cc1ccc(NC(=O)COc2ccc(-n3ccnc3)cc2)cc1Cl are within 1.5-fold of each other in IC50: 64.7 µM for the first, 44.5 µM for the second.

COc1cc(/C=C/c2cc[n+](C)cc2)ccc1OCC(=O)Nc1ccc(Cl)c(Cl)c1 and CCOC(=O)c1ccccc1NC(=O)COc1coc(CN2CCc3ccccc32)cc1=O are within 1.5-fold of each other in IC50: 25 µM for the first, 27.1 µM for the second.

Going from [O-][n+]1c2ccccc2c2n1CCN1CCOC21c1ccc(Cl)cc1 (stereo not given) to O=C(Oc1ccccc1-c1nnco1)c1ccc(Cl)cc1, the IC50 falls from 51 µM to 27.8 µM (1.8-fold).

Compared with CCCC12CN3CC(CCC)(CN(C1)C3c1ccccn1)C2=O (stereo not given), COc1c(C)cc(C(=O)C2CCCN(Cc3ccccn3)C2)cc1C (stereo not given) is 2.1-fold higher in IC50: 9.71 µM for the first, 20.2 µM for the second. The first is the more potent here.

Going from COC(=O)c1ccc(Cn2cc(C(F)(F)F)cc([N+](=O)[O-])c2=O)cc1 to Cc1ccc2[nH]c(C)c(CCNC(=O)c3cc4cc([N+](=O)[O-])ccc4oc3=O)c2c1, the IC50 rises from 0.63 µM to 11.2 µM (18-fold).

Compared with CC1(C)OC(=O)C(=Cc2ccc[nH]2)C(=O)O1, Cc1ccc(/C=C2\C(=O)Nc3ccccc32)o1 is higher in IC50: under 0.2 µM for the first, 4.9 µM for the second.

First: Oc1ccccc1/C=N/NC(=S)NC1CC2CC1C1C=CCC21 (stereo not given)
Second: CSC(=S)N/N=C/c1ccccc1
The IC50 of the first is 3.3-fold lower: 11.9 µM for the first, 39.8 µM for the second.

Going from O=C1Nc2ccc(Br)cc2/C1=C/C(=O)c1ccc2c(c1)OCO2 to Cn1nc(-c2ccccc2F)c2cc(C(=O)Nc3ccc4c(c3)OCCO4)sc21, the IC50 rises from 18.1 µM to 41.7 µM (2.3-fold). The first is the more potent here.

Going from CC1=C(/C=C/C(C)=C/C=C/C(C)=C/C(=O)Nc2ccc(O)cc2)C(C)(C)CCC1 to Cc1oc(C(=O)Nc2ccc(O)cc2)cc1COc1ccccc1, the IC50 falls from 44.2 µM to 15.2 µM (2.9-fold). The second is the more potent here.

c1nc2n(n1)C1=C(CCCC1)C1(CCCCC1)N2 and CCc1c(C2(O)CCCCC2)[nH]c2ccc(C(F)(F)F)cc12 are within 1.5-fold of each other in IC50: 29.8 µM for the first, 40.2 µM for the second.

Cn1nc(C(F)(F)F)c2cc(NC(=O)OCC(C)(C)C)sc21 and CC(C)(C)NC(=O)COC(=O)c1cc(Br)ccc1Cl are within 1.5-fold of each other in IC50: 22.8 µM for the first, 24.3 µM for the second.

Going from Nc1c(C(=O)NC2CCCCC2)nsc1C(=O)OCC(=O)NC1CCCCC1 to O=C(Nc1ccccc1)C1=C[C@@H](C2CCCCC2)C[C@@H](OCc2ccc(CO)cc2)O1, the IC50 rises from 2.89 µM to 36 µM (12-fold).

Compared with COc1ccc(SN=C2C(C)=CC(=O)C=C2C)cc1, COc1ccc(-c2ccc(-c3noc(C(C)C)n3)c(OC)n2)cc1 is 1.8-fold higher in IC50: 22.4 µM for the first, 40.3 µM for the second. The first is the more potent here.

First: COc1ccc(NCc2nc3ccccc3n2CCOc2ccccc2)cc1
Second: c1ccc(Cn2c(CNc3nc4ccccc4n3CCN3CCCCC3)nc3ccccc32)cc1
The IC50 of the first is 1.6-fold higher: 69.5 µM for the first, 44.6 µM for the second.

CCOc1ccc(-c2[nH]ncc2-c2ccc(Cl)cc2)c(O)c1 and CCCOc1ccc(C(=O)NC(=S)NCc2cccnc2)cc1 are within 1.5-fold of each other in IC50: 44.8 µM for the first, 35.1 µM for the second.

Compared with COc1cccc(-c2cc3nc4c(c(NCC(C)(C)CN(C)C)n3n2)CCCC4)c1, COc1ccc(CNc2ncnc3c2[nH]c2cc(OC)c(OC)cc23)cc1 is 2.9-fold higher in IC50: 27.5 µM for the first, 80.7 µM for the second. The first is the more potent here.

Going from Cc1cc(C)c2cc(C(=O)Nc3ccc(C)c(F)c3)[nH]c2c1 to Cc1ccc(NC(=O)C2C3/C=C\CCCCC32)cc1C (stereo not given), the IC50 rises from 1.32 µM to 2.97 µM (2.2-fold). The first is the more potent here.

C=CCOc1c(Br)cc(CNc2nccs2)cc1OC and Cc1ccn2c(-c3csc(NCc4ccccc4)n3)c(C)nc2c1 are within 1.5-fold of each other in IC50: 31.4 µM for the first, 45.5 µM for the second.

First: CCCCC(=O)Nc1sc2c(c1C(=O)OCC)CCC(C=O)=C2Cl
Second: CCOC(=O)c1c(CC(C)C)csc1NC(=O)CCl
The IC50 of the first is 15-fold higher: 38.8 µM for the first, 2.66 µM for the second. The second is the more potent here.

First: Cc1ccc(-c2csc3nc4c5ccccc5c(NCCCN5CCOCC5)nn4c(=O)c23)cc1
Second: COc1cccc(/C=N/Nc2ncnc3scc(-c4ccccc4)c23)c1O
The IC50 of the first is 5.1-fold higher: 29 µM for the first, 5.65 µM for the second. The second is the more potent here.

First: CC(C)COCc1ccc(O)c2ncccc12
Second: c1ccc(-c2nc3c(ccc4ccccc43)[nH]2)nc1
The IC50 of the first is 14-fold lower: 2.18 µM for the first, 31.4 µM for the second.

First: CC(C)C(=O)N1CCC2(CC1)Oc1ccc(Cl)cc1C(=O)C21CC(c2ccccc2)=NO1 (stereo not given)
Second: O=C(Nc1cccc(Cl)c1)N1CCN(C/C=C/c2ccccc2)CC1
The IC50 of the first is 1.7-fold higher: 59.4 µM for the first, 35 µM for the second.

Compared with Cc1c(Cl)cccc1NC(=O)CN1CCC(C(O)(c2ccccc2)c2ccccc2)CC1, CC(C)(C)c1ccc(C(O)CCCN2CCC(C(O)(c3ccccc3)c3ccccc3)CC2)cc1 (stereo not given) is 3.8-fold lower in IC50: 45.1 µM for the first, 12 µM for the second. The second is the more potent here.

OCC1(Cc2cccc(Cl)c2)CCCN(Cc2ccc3cc(F)ccc3n2)C1 (stereo not given) and c1ccc(-c2nc(N3CCCC3)nc3ccccc23)cc1 are within 1.5-fold of each other in IC50: 38.2 µM for the first, 47 µM for the second.

First: Cn1c(/C=N/Nc2nc3ccccc3[nH]2)nc2ccccc21
Second: N=C1C(c2nc3ccccc3[nH]2)=C(O)CN1NC(=O)c1c[nH]c2ccccc12
The IC50 of the first is 2.3-fold higher: 61.8 µM for the first, 26.7 µM for the second.

C=C(C)CSc1cc(C)c(C#N)c2nc3ccccc3n12 and CC(O)CNc1nc2ccccc2n1-c1ncnc2sc3c(c12)CCC3 (stereo not given) are within 1.5-fold of each other in IC50: 31.5 µM for the first, 35.2 µM for the second.

Going from CC(C)(C)C(=O)NC(=S)NNC(=O)c1sc2ccccc2c1Cl to Cc1cccc(C(=O)NNC(=S)NC(=O)c2ccccc2)c1, the IC50 falls from 43.9 µM to 1.56 µM (28-fold).

CCN1C(=NCCc2ccc(Br)cc2)N[C@@H](c2ccccc2)[C@H](C(=O)OC)[C@H]1C and Cc1c(CN(C)C)c2c(n1Cc1ccccc1)C(=O)c1ccc(Br)cc1-2 are within 1.5-fold of each other in IC50: 22.4 µM for the first, 24 µM for the second.

First: CCCCn1c(SCc2ncc(-c3ccccc3)o2)nc2cc(S(N)(=O)=O)ccc21
Second: CCCCOCCCn1c(-c2ccco2)nc2nc3ccccc3nc21
The IC50 of the first is 19-fold lower: 5.25 µM for the first, 99.9 µM for the second. The first is the more potent here.

First: COc1ccccc1C1c2ccc3ccccc3c2Oc2ncn(CCN(C)C)c(=N)c21 (stereo not given)
Second: CCCCN1C(=O)C2(NNc3ccccc3O2)c2ccccc21 (stereo not given)
The IC50 of the first is 3.7-fold lower: 25.2 µM for the first, 92.1 µM for the second. The first is the more potent here.

Going from CCC(C)Nc1ccc(NC(C)CC)cc1 (stereo not given) to Cn1nc([N+](=O)[O-])nc1Sc1ccc(C(C)(C)C)cc1, the IC50 rises from 2.31 µM to 8.88 µM (3.8-fold).

CN(CC(=O)Nc1ccc(F)c(F)c1F)c1cnccn1 and COc1ccc(-n2nc3c(c2NC(=O)CCl)CSC3)cc1 are within 1.5-fold of each other in IC50: 9.88 µM for the first, 6.92 µM for the second.

Going from CN(Cc1ccc(Cl)s1)C(=O)CCl to Cc1ccc(N(CCC#N)C(=O)CCl)cc1C, the IC50 rises from 1.54 µM to 5.11 µM (3.3-fold).

First: O=C(Nc1ccc(C2=NCCN2)cc1)c1ccc(Cl)c(C(=O)Nc2ccc(C3=NCCN3)cc2)c1
Second: O=C(Nc1nnc(C2=COCCO2)o1)c1ccc(Cc2ccccc2)cc1
The IC50 of the first is 1.9-fold higher: 22.7 µM for the first, 11.7 µM for the second. The second is the more potent here.

CCOC(=O)c1sc2nc3n(c(=O)c2c1C)CCC(C)CC3 (stereo not given) and CO/N=C(\Cn1ncc(N2CCCC2)c(Cl)c1=O)c1ccc(Cl)cc1 are within 1.5-fold of each other in IC50: 23 µM for the first, 23.7 µM for the second.

Going from O=C(O)c1[nH]c(=O)[nH]c(=O)c1F to CC1(C)c2[nH]c3ccccc3c2C[C@@H]2C(=O)N(Cc3ccccc3F)C(=O)N21, the IC50 rises from 5.47 µM to 49.3 µM (9-fold).

Going from COc1ccc(C[C@H]2CN3C(=NC[C@H]3Cc3ccccc3)N2CCNC(=O)CCC2CCCCC2)cc1 to CCCCCc1ccc(S(=O)(=O)NCCc2ccncc2)cc1, the IC50 rises from 22.4 µM to 36.5 µM (1.6-fold).

Going from S=C(NCc1ccc(Cl)cc1)NC12CC3CC(CC(C3)C1)C2 to O=C(NC(=S)Nc1ccc(N2CCCCC2)c(Cl)c1)c1cccs1, the IC50 rises from 3.83 µM to 21.2 µM (5.5-fold). The first is the more potent here.

First: Cc1cc2c(cc1C)CSC(c1c(O)ccc3ccccc13)SC2
Second: O=[N+]([O-])c1cc([N+](=O)[O-])c2cc3ccccc3nc2c1
The IC50 of the first is higher: 61.2 µM for the first, under 0.2 µM for the second.

Cc1ccc(C)c(N2CCN(C(=O)c3ccc4nc(N5CCOCC5)sc4c3)CC2)c1 and c1ccc2c(c1)CCN(c1nc3cc4c(cc3s1)OCCO4)C2 are within 1.5-fold of each other in IC50: 35.2 µM for the first, 35 µM for the second.

Molecule CC1Cc2cc(-c3csc(NC(=O)Cc4cccs4)n3)ccc2N1S(C)(=O)=O (stereo not given) has an IC50 of 36.2 µM.

Same assay, conditions: measured here: IC90 growth inhibition

COc1ccccc1OCCN1CSC(=S)N(C)C1 was tested, and the IC90 was 23.9 µM.

Reference: PubChem BioAssay AID449764 (Southern Research Specialized Biocontainment Screening …, 2010)
